Laboratory results reported in patent publication US6525001B1, “Substituted pyrimidine and pyridine herbicides” (Mid-American Commercialization Corporation, priority 1997, dated 2003).

How the values were obtained:
Assay type in all cases: in vivo
Set-up in all cases: key: 0 is no effect; 10 is complete control
[1] = tested on: duck salad (Heteranthera limosa); assay: Test B flood test; settings: for Plant response rating, Ducksalad: Postemergence (flood test species)
How it was run: (§1)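 Flood test on plants grown to the 2-leaf stage; treated plants kept in greenhouse twelve to sixteen days, then visually rated against controls on a 0 (no effect) to 10 (complete control) scale.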

[2] = tested on: bamyardgrass (Echinochloa crus-galli); assay: Test B flood test; settings: for Plant response rating, Barnyardgrass: Postemergence (flood test species)
How it was run: as §1

[3] = tested on: smallflower flatsedge (Cyperus difformis); assay: Test B flood test; settings: for Plant response rating, S. Flatsedge: Postemergence (flood test species)
How it was run: as §1

rice (Oryza sativa) = assay: Test B flood test; settings: for Plant response rating, Rice: Postemergence (flood test species)
How it was run: as §1

soybean (Glycine max) = assay: Test B pre-/postemergence
How it was run: (§2)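 Scored visually 0 (none) to 10 (complete control) against untreated plants after twelve to sixteen greenhouse days. Test chemicals, formulated in surfactant-containing non-phytotoxic solvent, applied to soil after planting and, separately, onto 1- to 4-leaf (2–18 cm) plants.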

rape (Brassica napus) = assay: Test B pre-/postemergence
How it was run: as §2

[4] = Rate 62 g/ha, Postemergence (flood test)
[5] = Rate 125 g/ha, Postemergence section (flood test species)
[6] = Preemergence, Rate 62 g/ha, scale of 0 to 10

SMILES: Cc1cnc(-c2ccc(C(F)(F)F)cc2)nc1Cn1cc(Br)cn1 [Compound 54]
- Ducksalad plant response rating [1, 4]: 0
- Ducksalad plant response rating [1, 5]: 0
- Plant response rating, Ducksalad ([1]; Rate 250 g/ha): 1
- Plant response rating, Ducksalad ([1]; Rate 500 g/ha): 3
- Barnyardgrass plant response rating [2, 4]: 2
- Barnyardgrass plant response rating [2, 5]: 3
- Plant response rating, Barnyardgrass ([2]; Rate 250 g/ha): 3
- Plant response rating, Barnyardgrass ([2]; Rate 500 g/ha): 4
- S. Flatsedge plant response rating [3, 4]: 6
- S. Flatsedge plant response rating [3, 5]: 8
- Plant response rating, S. Flatsedge ([3]; Rate 250 g/ha): 9
- Plant response rating, S. Flatsedge ([3]; Rate 500 g/ha): 9
- Rice plant response rating (rice (Oryza sativa); [4]): 1
- Rice plant response rating (rice (Oryza sativa); [5]): 2
- Plant response rating, Rice (rice (Oryza sativa); Rate 250 g/ha): 3
- Plant response rating, Rice (rice (Oryza sativa); Rate 500 g/ha): 4
- Plant response rating, Soybean (soybean (Glycine max); [6]): 0
- Soybean plant response rating (soybean (Glycine max); Rate 62 g/ha, Postemergence): 0
- Soybean plant response rating (soybean (Glycine max); Rate 125 g/ha, Postemergence): 3
- Plant response rating, Soybean (soybean (Glycine max); Rate 125 g/ha, Preemergence): 0
- Plant response rating, Soybean (soybean (Glycine max); Rate 250 g/ha, Postemergence): 4
- Plant response rating, Soybean (soybean (Glycine max); Rate 250 g/ha, Preemergence): 0
- Plant response rating, Soybean (soybean (Glycine max); Rate 500 g/ha, Postemergence): 4
- Plant response rating, Soybean (soybean (Glycine max); Rate 500 g/ha, Preemergence): 0
- Plant response rating, Rape (rape (Brassica napus); [6]): 0
- Rape plant response rating (rape (Brassica napus); Rate 62 g/ha, Postemergence): 7
- Rape plant response rating (rape (Brassica napus); Rate 125 g/ha, Postemergence): 8
- Plant response rating, Rape (rape (Brassica napus); Rate 125 g/ha, Preemergence): 0
- Plant response rating, Rape (rape (Brassica napus); Rate 250 g/ha, Postemergence): 9
- Plant response rating, Rape (rape (Brassica napus); Rate 250 g/ha, Preemergence): 3
- Plant response rating, Rape (rape (Brassica napus); Rate 500 g/ha, Postemergence): 9
- Plant response rating, Rape (rape (Brassica napus); Rate 500 g/ha, Preemergence): 3

SMILES: Cc1cnc(-n2cnc(C(F)(F)F)c2)nc1C(=O)c1cccc(C(F)(F)F)c1 [Compound 61]
- Ducksalad plant response rating [1, 4]: 0
- Ducksalad plant response rating [1, 5]: 1
- Plant response rating, Ducksalad ([1]; Rate 250 g/ha): 3
- Plant response rating, Ducksalad ([1]; Rate 500 g/ha): 5
- Barnyardgrass plant response rating [2, 4]: 2
- Barnyardgrass plant response rating [2, 5]: 3
- Plant response rating, Barnyardgrass ([2]; Rate 250 g/ha): 3
- Plant response rating, Barnyardgrass ([2]; Rate 500 g/ha): 4
- S. Flatsedge plant response rating [3, 4]: 3
- S. Flatsedge plant response rating [3, 5]: 7
- Plant response rating, S. Flatsedge ([3]; Rate 250 g/ha): 8
- Plant response rating, S. Flatsedge ([3]; Rate 500 g/ha): 9
- Rice plant response rating (rice (Oryza sativa); [4]): 0
- Rice plant response rating (rice (Oryza sativa); [5]): 0
- Plant response rating, Rice (rice (Oryza sativa); Rate 250 g/ha): 2
- Plant response rating, Rice (rice (Oryza sativa); Rate 500 g/ha): 2
- Plant response rating, Soybean (soybean (Glycine max); [6]): 0
- Soybean plant response rating (soybean (Glycine max); Rate 62 g/ha, Postemergence): 4
- Soybean plant response rating (soybean (Glycine max); Rate 125 g/ha, Postemergence): 5
- Plant response rating, Soybean (soybean (Glycine max); Rate 125 g/ha, Preemergence): 1
- Plant response rating, Soybean (soybean (Glycine max); Rate 250 g/ha, Postemergence): 5
- Plant response rating, Soybean (soybean (Glycine max); Rate 250 g/ha, Preemergence): 1
- Plant response rating, Soybean (soybean (Glycine max); Rate 500 g/ha, Postemergence): 6
- Plant response rating, Soybean (soybean (Glycine max); Rate 500 g/ha, Preemergence): 2
- Plant response rating, Rape (rape (Brassica napus); [6]): 4
- Rape plant response rating (rape (Brassica napus); Rate 62 g/ha, Postemergence): 6
- Rape plant response rating (rape (Brassica napus); Rate 125 g/ha, Postemergence): 7
- Plant response rating, Rape (rape (Brassica napus); Rate 125 g/ha, Preemergence): 8
- Plant response rating, Rape (rape (Brassica napus); Rate 250 g/ha, Postemergence): 8
- Plant response rating, Rape (rape (Brassica napus); Rate 250 g/ha, Preemergence): 9
- Plant response rating, Rape (rape (Brassica napus); Rate 500 g/ha, Postemergence): 9
- Plant response rating, Rape (rape (Brassica napus); Rate 500 g/ha, Preemergence): 9

SMILES: Cc1cnc(-n2ccc(C(F)(F)C(F)(F)F)n2)nc1C(=O)c1cccc(OC(F)(F)F)c1 [Compound 62]
- Ducksalad plant response rating [1, 4]: 0
- Ducksalad plant response rating [1, 5]: 0
- Plant response rating, Ducksalad ([1]; Rate 250 g/ha): 0
- Plant response rating, Ducksalad ([1]; Rate 500 g/ha): 2
- Barnyardgrass plant response rating [2, 4]: 1
- Barnyardgrass plant response rating [2, 5]: 2
- Plant response rating, Barnyardgrass ([2]; Rate 250 g/ha): 3
- Plant response rating, Barnyardgrass ([2]; Rate 500 g/ha): 4
- S. Flatsedge plant response rating [3, 4]: 3
- S. Flatsedge plant response rating [3, 5]: 6
- Plant response rating, S. Flatsedge ([3]; Rate 250 g/ha): 7
- Plant response rating, S. Flatsedge ([3]; Rate 500 g/ha): 8
- Rice plant response rating (rice (Oryza sativa); [4]): 0
- Rice plant response rating (rice (Oryza sativa); [5]): 0
- Plant response rating, Rice (rice (Oryza sativa); Rate 250 g/ha): 0
- Plant response rating, Rice (rice (Oryza sativa); Rate 500 g/ha): 0
- Plant response rating, Soybean (soybean (Glycine max); [6]): 0
- Soybean plant response rating (soybean (Glycine max); Rate 62 g/ha, Postemergence): 1
- Soybean plant response rating (soybean (Glycine max); Rate 125 g/ha, Postemergence): 1
- Plant response rating, Soybean (soybean (Glycine max); Rate 125 g/ha, Preemergence): 0
- Plant response rating, Soybean (soybean (Glycine max); Rate 250 g/ha, Postemergence): 1
- Plant response rating, Soybean (soybean (Glycine max); Rate 250 g/ha, Preemergence): 0
- Plant response rating, Soybean (soybean (Glycine max); Rate 500 g/ha, Postemergence): 2
- Plant response rating, Soybean (soybean (Glycine max); Rate 500 g/ha, Preemergence): 1
- Plant response rating, Rape (rape (Brassica napus); [6]): 0
- Rape plant response rating (rape (Brassica napus); Rate 62 g/ha, Postemergence): 2
- Rape plant response rating (rape (Brassica napus); Rate 125 g/ha, Postemergence): 2
- Plant response rating, Rape (rape (Brassica napus); Rate 125 g/ha, Preemergence): 1
- Plant response rating, Rape (rape (Brassica napus); Rate 250 g/ha, Postemergence): 2
- Plant response rating, Rape (rape (Brassica napus); Rate 250 g/ha, Preemergence): 2
- Plant response rating, Rape (rape (Brassica napus); Rate 500 g/ha, Postemergence): 3
- Plant response rating, Rape (rape (Brassica napus); Rate 500 g/ha, Preemergence): 3
